Source: patent US12622977B2, “Antibody drug conjugate” (CHIA TAI TIANQING PHARMACEUTICAL GROUP CO., LTD., priority 2020, dated 2026)

Columns and labels:
Format in all cases: cell-based
[1] = tested on: HER2 positive tumor cells NCI-N87; test: Proliferation inhibition of NCI-N87 cells by DXD and DDDXD (CCK-8); conditions: Homo sapiens, NCI-N87, 120 h
Experimental: DXD and DDDXD were pre-diluted to 140,000 ng/mL in culture medium and labeled as S1, and then five-fold serially diluted to obtain their corresponding reference samples S1-S9; the final drug concentration range was 35000 ng/mL to 0.0896 ng/mL with 9 concentrations in total. HER2 positive tumor cells NCI-N87 in the logarithmic growth phase were collected, adjusted to a density of 1×10^5 cells/mL, and plated at 100 μL per well, and a blank well without any cells was set as a control. The above serially diluted two samples were added at 50 μL per well. The plate was incubated in an incubator at 37° C. with 5% CO2 for 5 days. The culture medium was discarded, and CCK-8 (Dojindo, Japan, Cat. No. CK04) working solution was added at 100 μL per well. The plate was incubated for 4-5 h for color developing and placed in a microplate reader (manufacturer: Thermo, Model: VarioskanFlash). The absorbance values at a wavelength of 450 nm were read and recorded using a reference wavelength of 630 nm. The proliferation inhibition against the tumor cells were calculated.

[2] = tested on: NCI-N87 Her2++ tumor cells; test: Killing of Her2 positive target cell NCI-N87 with human PBMC effector cells (ADCC, CytoTox96); conditions: effector-to-target ratio 10:1
Experimental: The killing effects of the anti-Her2 bispecific antibodies on target cells (NCI-N87 Her2++, source: the Cell Bank of Type Culture Collection Committee of the Chinese Academy of Sciences) were studied using NK cells provided by human PBMCs (peripheral blood mononuclear cells), and the in vitro activity of the anti-Her2 bispecific antibodies was assessed by EC50 value.
The specific procedures are as follows: NCI-N87 cells were adjusted to a cell density of 3×10^5 cells/mL using 1640 medium containing 2% FBS (fetal bovine serum) and seeded in a 96-well cell culture plate (eppendorf, Cat. No. 0030730199) at 50 μL per well. […] Human PBMCs were adjusted to a cell density of 1.5×10^6 cells/mL using medium for experiment and added at 100 μL per well. An administration group (target cell+effector cell+antibody or control drug), a target cell group (NCI-N87 cell), an effector cell group (human PBMC), a target cell+effector cell group, a blank control group (medium) and a lysis solution control group, and a target cell maximum release group (target cell+lysis solution) were set, with the effector-to-target cell ratio being 10:1. […] After 45 min, the cell lysis rates were measured using a CytoTox96® nonradioactive cytotoxicity assay (Promega, G1780). […]

[3] = tested on: JIMT-1 tumor cells; test: Killing of trastuzumab-resistant cell JIMT-1 with human PBMC effector cells (ADCC, CytoTox96); conditions: effector-to-target ratio 20:1
Experimental: The killing effects of the anti-Her2 bispecific antibodies on target cells (JIMT-1, source: AddexBio, Cat. No. C0006005) were studied using NK cells provided by human PBMCs (peripheral blood mononuclear cells), and the in vitro activity of the anti-Her2 bispecific antibodies was assessed by EC50 value.
The specific procedures are as follows: JIMT-1 cells were adjusted to a cell density of 3×10^5 cells/mL using 1640 medium containing 2% FBS (fetal bovine serum) and seeded in a 96-well cell culture plate (eppendorf, Cat. No. 0030730199) at 50 μL per well. […] Human PBMCs were adjusted to a cell density of 1.5×10^6 cells/mL using medium for experiment and added at 100 μL per well. An administration group (target cell+effector cell+antibody or control drug), a target cell group (JIMT-1BT474 cell), an effector cell group (human PBMC), a target cell+effector cell group, a blank control group (medium) and a lysis solution control group, and a target cell maximum release group (target cell+lysis solution) were set, with the effector-to-target cell ratio being 20:1. 45 min prior to the assay, 20 μL/well of lysis solution (Promega, Cat. No. G182A) was added to the target cell maximum release group and the lysis solution control group. After 45 min, the cell lysis rates were measured using a CytoTox96® nonradioactive cytotoxicity assay (Promega, G1780). […]

Compound | IC50 [1] | EC50 [2] | EC50 [3]
CC[C@@]1(O)C(=O)OCc2c1cc1n(c2=O)Cc2c-1nc1cc(F)c(C)c3c1c2[C@@H](NC(=O)CO)CC3 [DXD] | 4.45 nM | – | –
T-DM1 | – | 0.0739 nM | 0.0836 nM
